The text below walks through data of patent US10689377B2 (Mirati Therapeutics, Inc., priority 2017, dated 2020).

The term IC50 denotes the midpoint of a concentration-inhibition curve. By half-life is commonly meant the time needed for the level to fall by half in the phase considered.

The target in data set [1] is KRas G12C (Homo sapiens, UniProt P01116, G12C). Nature of the data set: Cellular inhibition of KRas G12C measured by Phospho-ERK in NCI-H358 cells. The class given is cell-based. Conditions: pERK(Thr202/Tyr204) normalized with GAPDH, NCI-H358 cells, 3 hours; read-out: IC50. The method, boiled down: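 Following 8-12 h attachment, NCI-H358 cells got serially diluted compound (0.5% DMSO) for 3 hours. Cells were then fixed, permeabilized with cold methanol, and stained for pERK(Thr202/Tyr204) and GAPDH. Ratios were converted to percent of DMSO control, with IC50 obtained by four-parameter regression.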
KRas G12C, sequence (P01116 1-188 isoform P01116-2 G12C): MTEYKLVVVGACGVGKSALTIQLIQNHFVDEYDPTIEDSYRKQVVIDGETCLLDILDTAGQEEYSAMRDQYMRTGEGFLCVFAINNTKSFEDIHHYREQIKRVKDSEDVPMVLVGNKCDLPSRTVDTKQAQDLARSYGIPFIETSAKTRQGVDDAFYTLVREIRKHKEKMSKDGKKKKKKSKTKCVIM

The nature of data set [2]: In vitro stability in human whole blood. The class given is in vitro ADME. Conditions: male, whole blood diluted to 50% with PBS, pH 7.4, human whole blood diluted to 50% with PBS, 5 μM, 37° C., 240-minute incubation, read-out: Compound Half-life. The text has this: Materials: The following reagents were used as received: acetonitrile (HPLC grade, Burdick & Jackson, Madison, Wis.), phosphate buffered saline (PBS), pH 7.4 (Sigma-Aldrich, Co., St. Louis, Mo.), water (HPLC grade, JT Baker, Phillipsburg, N.J.), DMSO (EM Science, Merck KGaA, Darmstadt, Germany) and isopropanol (IPA, reagent grade, EMD Chemicals, Gibbstown, N.J.). Propantheline and esmolol (Sigma-Aldrich) were used as the positive control compounds in the assay. Diazepam (Sigma-Aldrich) was used as an internal standard for quantitation. Human whole blood was obtained from BioIVT (Westbury, N.Y.) […]. All other reagents and solvents were of the highest analytical grade supplied by Sigma (St. Louis, Mo.) and were used as received.
Blood Incubations: The in vitro stability of representative KRas G12C inhibitor compounds of the present invention in the presence whole blood was conducted in the following manner. Esmolol or propantheline, which are known to undergo ester hydrolysis by esterases in blood and plasma, were used as the positive controls in the assays. A 10 mM stock solution of propantheline, esmolol, or a compound of the present invention in DMSO was diluted to 500 μM with DMSO. Aliquots of whole blood (600 μL), in triplicate, were placed in the appropriate wells of a polypropylene 96-deep well plate (Axygen Scientific, Union City, Calif.). The blood was diluted to 50% using PBS, pH 7.4 (600 μL). The diluted blood was pre-incubated for 15 minutes at 37° C. Each well was dosed with 12 μL of the 500 μM DMSO stock simultaneously for a final test concentration of 5 μM. The plates were mixed at 600 rpm for 10 seconds on a plate shaker (IKA MTS 2/4 Digital Microtiter Shaker, VWR). Aliquots of 100 μL from each well of whole blood were transferred to three separate 96-deep well plates labeled 0, 60, or 240 minutes. At the end of each designated time point, the red blood cells were lysed with 100 μL of water, mixed at 600 rpm for one minute, and stopped with 800 μL of acetonitrile containing IS (0.625 μM diazepam). The plates were mixed on the plate shaker at 600 rpm for one minute and spun in a centrifuge at 2095×g for 7 minutes at room temperature using an Allegra benchtop centrifuge (Beckman Coulter, Fullerton, Calif.). Supernatant (100 μL) was transferred to a shallow 96-well plate (Costar) using a liquid sample handling system (Apricot, Perkin-Elmer, Boston, Mass.). The addition of 100 μL of water was added to each sample of supernatant for a final volume of 200 μL. The plates were sealed and the contents of each well were analyzed by LC-MS/MS.
Analytical quantitation: The LC-MS/MS system was comprised of an HTS-PAL autosampler (Leap Technologies, Carrboro, N.C.), an HP1200 HPLC (Agilent, Palo Alto, Calif.), and an API4000 triple quadrupole mass spectrometer (PE Sciex, a division of Applied Biosystems, Foster City, Calif.). […] The total run time, including re-equilibration, for a single injection was 2 minutes. Mass spectrometric detection of the analytes was accomplished using the ESI ionization mode. Ion current was optimized during infusion of a stock solution of propantheline, esmolol, or the representative test compound. Analyte responses, including the IS were measured by multiple reaction monitoring (MRM) of transitions unique to each compound.
Calculations: Data were acquired and peak areas were calculated for test compounds and the internal standard using Analyst 1.6.2 software (Sciex). The mean peak area ratios were calculated by averaging the peak area ratios (n=3) of each test compound and the IS for each sample.
Peak area tables were exported to BioAssay Enterprise (CambridgeSoft, Cambridge, Mass.), where the average analyte-to-internal standard peak area ratios were used to calculate percent remaining (% REM) and half-life (t1/2). Percent remaining (f) was calculated by determining the ratio of the peak area ratio at each time point to the peak area ratio of the time-zero samples. […]

Bounds are passed on as bounds.

Take `Cc1cccc2cccc(N3CCc4c(nc(OC[C@H]5CCCN5C)nc4N4CCN(C(=O)/C=C/CF)[C@@H](CC#N)C4)C3)c12` [Example 579, 2-[(2S)-1-[(E)-4-Fluorobut-2-enoyl]-4-[7-(8-methyl-1-naphthyl)-2-[[(2R)-1-methylpyrrolidin-2-yl]methoxy]-6,8-dihydro-5H-pyrido[3,4-d]pyrimidin-4-yl]piperazin-2-yl]acetonitrile]: in data set [1], the IC50 was 0.0001 to 1 µM. In addition, the half-life at 5 µM in data set [2] is 16.7 to 33.3 h.

With `C=C(C(=O)N1CCN(c2nc(OC[C@@H]3CCCN3C)nc3c2CCN(c2cccc4cccc(Cl)c24)C3)C[C@@H]1CC#N)C(F)(F)F` [Example 504, 2-[(2S)-4-[7-(8-chloro-1-naphthyl)-2-[[(2S)-1-methylpyrrolidin-2-yl]methoxy]-6,8-dihydro-5H-pyrido[3,4-d]pyrimidin-4-yl]-1-[2-(trifluoromethyl)prop-2-enoyl]piperazin-2-yl]acetonitrile], in data set [1], the IC50 lay within 0.0001 to 1 µM. Further, in data set [2], the half-life at 5 µM was ≤ 3.33 h.

As to `Cc1cccc2cccc(N3CCc4c(nc(OC[C@@H]5CCCN5C)nc4N4CCN(C(=O)/C=C/C#N)[C@@H](CC#N)C4)C3)c12` [Example 501, (E)-4-((S)-2-(cyanomethyl)-4-(7-(8-methylnaphthalen-1-yl)-2-(((S)-1-methylpyrrolidin-2-yl)methoxy)-5,6,7,8-tetrahydropyrido[3,4-d]pyrimidin-4-yl)piperazin-1-yl)-4-oxobut-2-enenitrile], the IC50 in data set [1] was in the range of 0.0001 to 1 µM. In addition, the half-life at 5 µM in data set [2] is ≤ 3.33 h.

Turning to `CN1CCC[C@H]1COc1nc2c(c(N3CCN(C(=O)/C=C/C(F)F)[C@@H](CC#N)C3)n1)CCN(c1cccc3cccc(Cl)c13)C2` [Example 484, 2-[(2S)-4-[7-(8-chloro-1-naphthyl)-2-[[(2S)-1-methylpyrrolidin-2-yl]methoxy]-6,8-dihydro-5H-pyrido[3,4-d]pyrimidin-4-yl]-1-[(E)-4,4-difluorobut-2-enoyl]piperazin-2-yl]acetonitrile], the IC50 in data set [1] was in the range of 0.0001 to 1 µM. For the same compound, the half-life at 5 µM in data set [2] is ≤ 3.33 h.

With `Cc1cccc2cccc(N3CCc4c(nc(OC[C@@H]5CCCN5C)nc4N4CCN(C(=O)/C=C\C#N)[C@@H](CC#N)C4)C3)c12` [Example 502, (Z)-4-((S)-2-(cyanomethyl)-4-(7-(8-methylnaphthalen-1-yl)-2-(((S)-1-methylpyrrolidin-2-yl)methoxy)-5,6,7,8-tetrahydropyrido[3,4-d]pyrimidin-4-yl)piperazin-1-yl)-4-oxobut-2-enenitrile], the IC50 in data set [1] fell in the range of 0.0001 to 1 µM. In addition, in data set [2], the half-life at 5 µM lay in the range of 3.33 to 16.7 h.

Consider `C=C(OC)C(=O)N1CCN(c2nc(OC[C@@H]3CCCN3C)nc3c2CCN(c2cccc4cccc(C)c24)C3)C[C@@H]1CC#N` [Example 512, 2-[(2S)-1-(2-methoxyprop-2-enoyl)-4-[7-(8-methyl-1-naphthyl)-2-[[(2S)-1-methylpyrrolidin-2-yl]methoxy]-6,8-dihydro-5H-pyrido[3,4-d]pyrimidin-4-yl]piperazin-2-yl]acetonitrile], for which the IC50 in data set [1] was > 1 µM. Moreover, the half-life at 5 µM in data set [2] is > 33.3 h.

As for `CN1CCC[C@H]1COc1nc2c(c(N3CCN(C(=O)/C=C/CN4CCOCC4)[C@@H](CC#N)C3)n1)CCN(c1cccc3cccc(Cl)c13)C2` [Example 367, 2-[(2S)-4-[7-(8-chloro-1-naphthyl)-2-[[(2S)-1-methylpyrrolidin-2-yl]methoxy]-6,8-dihydro-5H-pyrido[3,4-d]pyrimidin-4-yl]-1-[(E)-4-morpholinobut-2-enoyl]piperazin-2-yl]acetonitrile], in data set [1], the IC50 is 0.0001 to 1 µM. The half-life at 5 µM in data set [2] was in the range of 16.7 to 33.3 h.

On to `COC/C=C/C(=O)N1CCN(c2nc(OC[C@@H]3CCCN3C)nc3c2CCN(c2cccc4cccc(C)c24)C3)C[C@@H]1CC#N` [Example 511, 2-((S)-1-((E)-4-methoxybut-2-enoyl)-4-(7-(8-methylnaphthalen-1-yl)-2-(((S)-1-methylpyrrolidin-2-yl)methoxy)-5,6,7,8-tetrahydropyrido[3,4-d]pyrimidin-4-yl)piperazin-2-yl)acetonitrile], for which, in data set [1], the IC50 was in the range of 0.0001 to 1 µM. Besides, the half-life at 5 µM in data set [2] was > 33.3 h.

As for `C/C=C/C(=O)N1CCN(c2nc(OC[C@@H]3CCCN3C)nc3c2CCN(c2cccc4cccc(C)c24)C3)C[C@@H]1CC#N` [Example 372], the IC50 in data set [1] is 0.0001 to 1 µM. Besides, in data set [2], the half-life at 5 µM was > 33.3 h.

In the case of `CN(C/C=C/C(=O)N1CCN(c2nc(OC[C@@H]3CCCN3C)nc3c2CCN(c2cccc4cccc(Cl)c24)C3)C[C@@H]1CC#N)CC(F)(F)F` [Example 482, 2-[(2S)-4-[7-(8-chloro-1-naphthyl)-2-[[(2S)-1-methylpyrrolidin-2-yl]methoxy]-6,8-dihydro-5H-pyrido[3,4-d]pyrimidin-4-yl]-1-[(E)-4-[methyl(2,2,2-trifluoroethyl)amino]but-2-enoyl]piperazin-2-yl]acetonitrile], the IC50 in data set [1] was 0.0001 to 1 µM. Also, the half-life at 5 µM in data set [2] is > 33.3 h.

Take `CN1CCC[C@H]1COc1nc2c(c(N3CCN(C(=O)/C=C/CF)[C@@H](CC#N)C3)n1)CCN(c1cccc3cccc(Cl)c13)C2` [Example 479, 2-[(2S)-4-[7-(8-chloro-1-naphthyl)-2-[[(2S)-1-methylpyrrolidin-2-yl]methoxy]-6,8-dihydro-5H-pyrido[3,4-d]pyrimidin-4-yl]-1-[(E)-4-fluorobut-2-enoyl]piperazin-2-yl]acetonitrile]: the IC50 in data set [1] fell in the range of 0.0001 to 1 µM. Besides, in data set [2], the half-life at 5 µM was > 33.3 h.

With `Cc1cccc2cccc(N3CCc4c(nc(OC[C@@H]5CCCN5C)nc4N4CCN(C(=O)/C=C/CCl)[C@@H](CC#N)C4)C3)c12` [Example 498, 2-((S)-1-((E)-4-chlorobut-2-enoyl)-4-(7-(8-methylnaphthalen-1-yl)-2-(((S)-1-methylpyrrolidin-2-yl)methoxy)-5,6,7,8-tetrahydropyrido[3,4-d]pyrimidin-4-yl)piperazin-2-yl)acetonitrile], the IC50 in data set [1] lay in the range of 0.0001 to 1 µM. The half-life at 5 µM in data set [2] was > 33.3 h.

Regarding `CN(C)C/C=C/C(=O)N1CCN(c2nc(OC[C@@H]3CCCN3C)nc3c2CCN(c2cccc4ccccc24)C3)C[C@@H]1CC#N` [Example 235, 2-((S)-1-((E)-4-(dimethylamino)but-2-enoyl)-4-(2-(((S)-1-methylpyrrolidin-2-yl)methoxy)-7-(naphthalen-1-yl)-5,6,7,8-tetrahydropyrido[3,4-d]pyrimidin-4-yl)piperazin-2-yl)acetonitrile], in data set [1], the IC50 fell in the range of 0.0001 to 1 µM. Besides, the half-life at 5 µM in data set [2] was > 33.3 h.

Turning to `CN1CCC[C@H]1COc1nc2c(c(N3CCN(C(=O)/C=C/CO)[C@@H](CC#N)C3)n1)CCN(c1cccc3cccc(Cl)c13)C2` [Example 513, 2-[(2S)-4-[7-(8-chloro-1-naphthyl)-2-[[(2S)-1-methylpyrrolidin-2-yl]methoxy]-6,8-dihydro-5H-pyrido[3,4-d]pyrimidin-4-yl]-1-[(E)-4-hydroxybut-2-enoyl]piperazin-2-yl]acetonitrile], the 50% inhibitory concentration (IC50) in data set [1] was in the range of 0.0001 to 1 µM. Besides, the half-life at 5 µM in data set [2] is 16.7 to 33.3 h.
